From paper PMC12348798, “Synthesis and Molecular Modeling of Antioxidant and Anti-Inflammatory Five-Membered Heterocycle–Cinnamic Acid Hybrids” (Molecules, 2025)
pIC50: −log10 of the molar value.

Key:
[1] = Inhibition of AAPH-induced linoleic acid peroxidation
Procedure: In the lipid peroxidation assay, 2,2′-azobis(2-methylpropionamidine)dihydrochloride (AAPH) was used as a peroxyl radical inducer, and sodium linoleate as a substrate. The formation of 13-hydroperoxy-linoleic acid from linoleic acid was monitored by measuring absorbance at 234 nm. Trolox was used as a reference compound.
(§1) A 10 mM stock solution of the synthesized compounds was prepared in DMSO for the vitro assays. Serial dilutions were carried out to determine the IC50 values. Each experiment was conducted six times, with standard deviations remaining below 10% of the mean.
AAPH was employed as an inducer of alkyl peroxyl radicals. In this experiment, the compounds’ ability to inhibit the oxidation of linoleic acid by alkyl peroxyl radicals was assessed by monitoring the change in absorbance at 234 nm due to the formation of 13-hydroperoxy-linoleic acid. Trolox was used as the reference compound [59, 68].

soybean lipoxygenase = biological target: T1, soybean lipoxygenase (Glycine max, UniProt P08170); assay: Inhibition of soybean lipoxygenase; assay type: biochemical; details: for pIC50: soybean lipoxygenase, sodium linoleate substrate, read-out: LOX IC50; for inhibition at 100 µM: read-out: LOX % Inhibition 100 μM
T1 construct: purchased Sigma Aldrich, Merck KGaA, Darmstadt, Germany
T1 sequence (P08170 1-839): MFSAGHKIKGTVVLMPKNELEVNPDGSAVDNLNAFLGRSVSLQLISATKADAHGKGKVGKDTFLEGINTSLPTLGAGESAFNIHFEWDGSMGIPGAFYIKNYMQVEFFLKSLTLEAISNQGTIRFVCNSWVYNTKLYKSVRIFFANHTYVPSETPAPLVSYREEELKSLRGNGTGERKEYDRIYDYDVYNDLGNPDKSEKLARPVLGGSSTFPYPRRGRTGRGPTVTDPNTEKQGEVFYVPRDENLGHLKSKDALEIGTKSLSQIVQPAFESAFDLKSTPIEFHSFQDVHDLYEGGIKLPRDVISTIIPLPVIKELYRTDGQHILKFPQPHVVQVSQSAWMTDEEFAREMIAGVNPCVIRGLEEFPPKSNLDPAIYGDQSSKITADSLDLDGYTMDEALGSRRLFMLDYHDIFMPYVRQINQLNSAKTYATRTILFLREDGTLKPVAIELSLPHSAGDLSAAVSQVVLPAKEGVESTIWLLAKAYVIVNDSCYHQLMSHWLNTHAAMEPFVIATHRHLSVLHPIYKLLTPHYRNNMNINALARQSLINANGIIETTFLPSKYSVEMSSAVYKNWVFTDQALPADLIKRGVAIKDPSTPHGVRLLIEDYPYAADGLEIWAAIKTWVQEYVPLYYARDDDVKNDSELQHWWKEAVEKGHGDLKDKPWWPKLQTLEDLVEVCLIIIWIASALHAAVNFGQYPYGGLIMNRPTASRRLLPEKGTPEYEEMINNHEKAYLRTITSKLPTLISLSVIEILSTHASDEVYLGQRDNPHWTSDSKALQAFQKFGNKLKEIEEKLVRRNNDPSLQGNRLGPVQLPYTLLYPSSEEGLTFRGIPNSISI
Procedure: Lipoxygenase (LOX) is responsible for the formation of leukotrienes, important inflammatory mediators. Due to its important role, it is considered as a therapeutic target for inflammatory diseases. Soybean lipoxygenase (LOX), a plant-derived enzyme, has been extensively utilized as a model for investigating the functional and structural properties of the lipoxygenase family, due to its significant homology with human 5-LOX [35, 61].
A 10 mM stock solution of the synthesized compounds was prepared in DMSO for the vitro assays. Serial dilutions were carried out to determine the IC50 values.
Sodium linoleate (0.1 mM), 0.2 mL of soybean lipoxygenase solution (1/9 × 10^−4 w/v in saline), and 10 μL of the test compound stock solution (10 mM in DMSO) were incubated at room temperature. Absorbance was recorded at 234 nm while monitoring the formation of 13-hydroperoxy-linoleic acid. […] To determine IC50 values, various concentrations of the test compounds were applied.

[2] = Interaction with the stable free radical DPPH (reducing activity)
Procedure: Firstly, the synthesized derivatives were evaluated for their ability to interact with the stable free radical 2,2-diphenyl-1-picrylhydrazyl (DPPH) at a concentration of 100 μM after 20 and 60 min (Table 2). DPPH is a valuable tool for studying antioxidant activity. Its reactivity with lipophilic compounds is not solely determined by their lipophilicity. The specific chemical structure of the antioxidant, the solvent used, and other factors can all influence the interaction with DPPH. However, lipophilic compounds tend to be well dissolved in organic solvents reacting with DPPH. Based on previous findings, the antioxidant activity is related with lipophilicity.
as §1
An in vitro study was conducted as previously described by our group. Free radical scavenging activity was evaluated by measuring absorbance at 517 nm after 20 and 60 min at room temperature.

[3] = test system: Valosine-containing protein; set-up: method as in PMID 23245311; details: from the literature; cited from earlier work

| Compound | pIC50 (soybean lipoxygenase) | inhibition at 100 µM (soybean lipoxygenase) [%] | AAPH % Inhibition 100 μM [1] [%] | RA % 100 μM 20 min [2] [%] | RA % 100 μM 60 min [2] [%] | Valosine-containing protein inhibition [3] |
| --- | --- | --- | --- | --- | --- | --- |
| O=C(/C=C/c1ccc2c(c1)OCO2)NNC(=S)Nc1ccccc1 [Compound 3f, (E)-2-(3-(Benzo[d][1,3]dioxol-5-yl)acryloyl)-N-phenylhydrazine-1-carbothioamide] | 4.46 | – | 58 | 70 | 89 | – |
| CC(=O)Oc1ccc(/C=C/C(=O)NNC(=S)Nc2ccccc2)cc1 [Compound 3e, (E)-4-(3-Oxo-3-(2-(phenylcarbamothioyl)hydrazineyl)prop-1-en-1-yl)phenyl acetate] | 5.01 | – | 47 | 83 | 21 | – |
| Cc1c(C)c2c(c(C)c1O)CCC(C)(C(=O)O)O2 (centres unmarked) [Trolox, 6-hydroxy-2,5,7,8-tetramethyl-chroman2-carboxylic acid, reference compound] | – | – | 92 | – | – | – |
| O=C(/C=C/c1ccc(OCc2ccc(Br)cc2)cc1)NNC(=S)Nc1ccccc1 [Compound 3g, (E)-2-(3-(4-((4-Bromobenzyl)oxy)phenyl)acryloyl)-N-phenylhydrazine-1-carbothioamide] | 5.00 | – | 91 | 98 | 87 | – |
| O=C(/C=C/c1ccc(Br)cc1)NNC(=S)Nc1ccccc1 [Compound 3d, (E)-2-(3-(4-Bromophenyl)acryloyl)-N-phenylhydrazine-1-carbothioamide] | 5.10 | – | 33 | 29 | 97 | – |
| CC(Cc1ccc(O)c(O)c1)C(C)Cc1ccc(O)c(O)c1 (centres unmarked) [NDGA, Nordihydroguaiaretic acid, reference compound] | – | – | – | 87 | 93 | – |
| O=C(/C=C/c1ccc(Cl)cc1)NNC(=S)Nc1ccccc1 [Compound 3b, (E)-2-(3-(4-Chlorophenyl)acryloyl)-N-phenylhydrazine-1-carbothioamide] | – | 49 | 37 | 90 | 83 | – |
| O=C(C=Cc1ccccc1)NNC(=S)Nc1ccccc1 [Compound 3a, 2-Cinnamoyl-N-phenylhydrazine-1-carbothioamide] | 5.07 | – | 67 | 61 | 92 | – |
| O=C(/C=C/c1ccc(F)cc1)NNC(=S)Nc1ccccc1 [Compound 3c, (E)-2-(3-(4-Fluorophenyl)acryloyl)-N-phenylhydrazine-1-carbothioamide] | – | 45 | 12 | 90 | 91 | – |

Now from value to compound, other results behind:

| pIC50 (soybean lipoxygenase) | inhibition at 100 µM (soybean lipoxygenase) [%] | Compound | AAPH % Inhibition 100 μM [1] [%] | RA % 100 μM 20 min [2] [%] | RA % 100 μM 60 min [2] [%] | Valosine-containing protein inhibition [3] |
| --- | --- | --- | --- | --- | --- | --- |
| 5.26 | – | CC(=O)Oc1ccc(/C=C/c2nnc(S)n2-c2ccccc2)cc1 [Compound 4e, (E)-4-(2-(5-Mercapto-4-phenyl-4H-1,2,4-triazol-3-yl)vinyl)phenyl acetate] | 87 | 96 | 93 | – |
| 4.49 | – | C(=C\c1nnc(Nc2ccccc2)o1)/c1ccccc1 [Compound 5a, (E)-N-Phenyl-5-styryl-1,3,4-oxadiazol-2-amine] | 17 | – | 7 | – |
| – | 35 | Fc1ccc(/C=C/c2nnc(S)n2-c2ccccc2)cc1 [Compound 4c, (E)-5-(4-Fluorostyryl)-4-phenyl-4H-1,2,4-triazole-3-thiol] | 94 | 82 | 93 | – |
| 5.12 | – | Sc1nnc(/C=C/c2ccccc2)n1-c1ccccc1 [Compound 4a, (E)-4-Phenyl-5-styryl-4H-1,2,4-triazole-3-thiol] | 26 | 74 | 93 | – |
| 5.35 | – | Sc1nnc(/C=C/c2ccc(Cl)cc2)n1-c1ccccc1 [Compound 4b, (E)-5-(4-Chlorostyryl)-4-phenyl-4H-1,2,4-triazole-3-thiol] | 34 | 33 | 88 | – |
| 4.77 | – | Fc1ccc(/C=C/c2nnc(Nc3ccccc3)o2)cc1 [Compound 5c, (E)-5-(4-Fluorostyryl)-N-phenyl-1,3,4-oxadiazol-2-amine] | 63 | 92 | 82 | – |
| 4.01 | – | Sc1nnc(/C=C/c2ccc(Br)cc2)n1-c1ccccc1 [Compound 4d, (E)-5-(4-Bromostyryl)-4-phenyl-4H-1,2,4-triazole-3-thiol] | 20 | 68 | 57 | allosteric Valosine-containing protein inhibitor |
| 4.74 | – | Clc1ccc(/C=C/c2nnc(Nc3ccccc3)o2)cc1 [Compound 5b, (E)-5-(4-Chlorostyryl)-N-phenyl-1,3,4-oxadiazol-2-amine] | – | 65 | 72 | – |
| 5.12 | – | Sc1nnc(/C=C/c2ccc3c(c2)OCO3)n1-c1ccccc1 [Compound 4f, (E)-5-(2-(Benzo[d][1,3]dioxol-5-yl)vinyl)-4-phenyl-4H-1,2,4-triazole-3-thiol] | 71 | 87 | 76 | – |
| 5.30 | – | C(=C\c1nnc(Nc2ccccc2)s1)/c1ccccc1 [Compound 6a, (E)-N-Phenyl-5-styryl-1,3,4-thiadiazol-2-amine] | 60 | 98 | 96 | – |
| 5.35 | – | Sc1nnc(/C=C/c2ccc(OCc3ccc(Br)cc3)cc2)n1-c1ccccc1 [Compound 4g, (E)-5-(4-((4-Bromobenzyl)oxy)styryl)-4-phenyl-4H-1,2,4-triazole-3-thiol] | 50 | 97 | 92 | – |
